Laboratory results from patent publication US12667572B2, “Tricyclic compounds useful in the treatment of cancer, autoimmune and inflammatory disorders” (SCHRÖDINGER, INC., priority 2021, dated 2026).

Columns and labels:
[1] = target: T1, full-length MALT1 protein His-MALT1(1-824) (Homo sapiens, UniProt Q9UDY8); test: MALT1 protease assay, Assay 1 (2 nM MALT1, Ac-LRSR-AMC substrate); assay type: biochemical; conditions: 2 nM MALT1, 50 μM Ac-LRSR-AMC, 2 h pre-incubation, 8 hr incubation at RT
T1 construct: full-length MALT1 protein His-MALT1(1-824); His (N); made in house; host or cells: baculovirus-infected insect cells
T1 sequence (Q9UDY8 1-824): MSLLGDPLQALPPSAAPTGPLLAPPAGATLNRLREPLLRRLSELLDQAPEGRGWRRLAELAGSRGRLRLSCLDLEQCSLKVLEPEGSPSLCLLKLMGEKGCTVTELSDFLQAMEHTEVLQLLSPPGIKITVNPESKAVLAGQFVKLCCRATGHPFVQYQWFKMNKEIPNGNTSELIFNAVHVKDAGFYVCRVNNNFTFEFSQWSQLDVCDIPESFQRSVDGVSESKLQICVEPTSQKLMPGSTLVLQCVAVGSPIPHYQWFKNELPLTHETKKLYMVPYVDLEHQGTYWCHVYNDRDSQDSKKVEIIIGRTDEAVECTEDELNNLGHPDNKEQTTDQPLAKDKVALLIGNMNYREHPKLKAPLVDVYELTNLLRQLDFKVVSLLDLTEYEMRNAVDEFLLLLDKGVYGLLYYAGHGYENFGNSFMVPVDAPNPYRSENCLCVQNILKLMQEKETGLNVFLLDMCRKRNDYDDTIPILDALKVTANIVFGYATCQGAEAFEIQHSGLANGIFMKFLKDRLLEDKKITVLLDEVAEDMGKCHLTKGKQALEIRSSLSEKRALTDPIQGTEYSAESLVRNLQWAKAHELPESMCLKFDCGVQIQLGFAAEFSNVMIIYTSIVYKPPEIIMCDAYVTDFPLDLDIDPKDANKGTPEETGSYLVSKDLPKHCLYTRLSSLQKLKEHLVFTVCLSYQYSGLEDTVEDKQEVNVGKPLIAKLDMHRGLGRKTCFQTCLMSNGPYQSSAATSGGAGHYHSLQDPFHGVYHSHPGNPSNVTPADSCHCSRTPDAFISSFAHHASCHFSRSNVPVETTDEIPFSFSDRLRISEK
Procedure, shortened: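 Full-length His-MALT1(1-824) from baculovirus-infected insect cells, pre-incubated with compound 2 h at RT (0.1% DMSO). Then 50 μM Ac-LRSR-AMC added. Buffer was Tris pH 7.5 with 600 mM sodium citrate, DTT, EDTA and BSA. Fluorescence (ex 355/em 460 nm) was read after 8 h at RT and normalized to high/low controls. IC50 from non-linear regression.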

[2] = test system: IL10 secretion in OCI-LY10 cells; test: Human IL10 secretion assay, Assay 1 (HTRF); assay type: cell-based; conditions: 24 h incubation, read-out: IL-10 Secretion IC50 [nM] Assay 1
Procedure: IL10 is one of the cytokines that are regulated via activation of NF-kB signaling. For example, in ABC-DLBCL cell lines, the activated NF-kB signaling leads to increased IL10 secretion. Inhibition of NF-kB signaling has been shown leading to decreased IL10 secretion.
Assay 1: OCI-LY10 cells were seeded in IMEM supplemented with 20% fetal bovine serum at 3×10^5 cells per well in 96-well round bottom plates (Corning 3799, Corning), treated with 100 nL of 3-fold serial compound dilutions, starting at 10 mM. The final vehicle concentration was 0.1% DMSO in all wells. After 24 h incubation, the cells were transferred to 96-PCR plates (Axygen: PCR-96-FLT-C) and centrifuged, then 16 μL of cell culture media was transferred to HTRF plates and IL10 levels were measured using human IL-10 Assay Kits (Cisbio) using HTRF format. The signals were transformed to percentage of remaining activity by using the high control (HC, median of signal from wells containing cells treated with DMSO) and low control (LC, median of signal from wells with no cells). IC50 values (nM) were determined using 4-parametric curve-fitting and Hill coefficient obtained using Graph Pad Prism (Graph Pad software, Inc, USA) with non-linear regression analysis.

Structure (SMILES)	IC50 [1] [nM]	IC50 [2] [nM]
CC1(C)C[C@H](C(=O)Nc2cnc([C@H]3CCCO3)c(Cl)c2)c2cnc3cc(Cl)nn3c21 (single isomer, unassigned) [Example 29, 2-chloro-N-(5-chloro-6-(tetrahydrofuran-2-yl)pyridin-3-yl)-8,8-dimethyl-7,8-dihydro-6H-cyclopenta[e]pyrazolo[1,5-a]pyrimidine-6-carboxamide]	10 to 100	100 to 1000
C[C@]1(C(F)(F)F)C[C@@H](C(=O)Nc2cnc(-n3nccn3)c(Cl)c2)c2cnc3cc(Cl)nn3c21 (single isomer, unassigned) [Example 37, 2-chloro-N-(5-chloro-6-(2H-1,2,3-triazol-2-yl)pyridin-3-yl)-8-methyl-8-(trifluoromethyl)-7,8-dihydro-6H-cyclopenta[e]pyrazolo[1,5-a]pyrimidine-6-carboxamide]	10 to 100	≥ 1000
CC1(C)CC(C(=O)Nc2cnc(-n3ncc(CO)n3)c(Cl)c2)c2cnc3cc(Cl)nn3c21 (single isomer, unassigned) [Example 31, 2-chloro-N-(5-chloro-6-(4-(hydroxymethyl)-2H-1,2,3-triazol-2-yl)pyridin-3-yl)-8,8-dimethyl-7,8-dihydro-6H-cyclopenta[e]pyrazolo[1,5-a]pyrimidine-6-carboxamide]	< 10	100 to 1000
CC(C)(O)c1cnn(-c2ncc(NC(=O)C3CC(C)(C)c4c3cnc3cc(Cl)nn43)cc2Cl)n1 (single isomer, unassigned) [Example 23, 2-chloro-N-(5-chloro-6-(4-(2-hydroxypropan-2-yl)-2H-1,2,3-triazol-2-yl)pyridin-3-yl)-8,8-dimethyl-7,8-dihydro-6H-cyclopenta[e]pyrazolo[1,5-a]pyrimidine-6-carboxamide]	< 10	100 to 1000
CC1(C)CC(C(=O)Nc2cnc(-n3nccn3)c(Cl)c2)c2cnc3cc(C(F)F)nn3c21 (single isomer, unassigned) [Example 25, N-(5-chloro-6-(2H-1,2,3-triazol-2-yl)pyridin-3-yl)-2-(difluoromethyl)-8,8-dimethyl-7,8-dihydro-6H-cyclopenta[e]pyrazolo[1,5-a]pyrimidine-6-carboxamide]	10 to 100	100 to 1000

Next, values leading:

IC50 [1] [nM]	IC50 [2] [nM]	Structure (SMILES)
< 10	100 to 1000	Cc1cc2ncc3c(n2n1)C(C)(C)C[C@@H]3C(=O)Nc1cnc(-n2nccn2)c(Cl)c1 (single isomer, unassigned) [Example 6, N-(5-chloro-6-(2H-1,2,3-triazol-2-yl)pyridin-3-yl)-2,8,8-trimethyl-7,8-dihydro-6H-cyclopenta[e]pyrazolo[1,5-a]pyrimidine-6-carboxamide]
10 to 100	100 to 1000	CC1(C)CC(C(=O)Nc2cnc(-n3nccn3)c(Cl)c2)c2cnc3cc(C#N)nn3c21 (single isomer, unassigned) [Example 4, N-(5-chloro-6-(2H-1,2,3-triazol-2-yl)pyridin-3-yl)-2-cyano-8,8-dimethyl-7,8-dihydro-6H-cyclopenta[e]pyrazolo[1,5-a]pyrimidine-6-carboxamide]
10 to 100	≥ 1000	CCc1cc2ncc3c(n2n1)C(C)(C)CC3C(=O)Nc1cnc(-n2nccn2)c(Cl)c1 (single isomer, unassigned) [Example 21, N-(5-chloro-6-(2H-1,2,3-triazol-2-yl)pyridin-3-yl)-2-ethyl-8,8-dimethyl-7,8-dihydro-6H-cyclopenta[e]pyrazolo[1,5-a]pyrimidine-6-carboxamide]
